Results published in paper doi:10.1101/2025.05.02.651913 (bioRxiv, 2025).

test system: MPXV strain hMPXV/USA/MA001/2022 (Lineage B.1, Clade IIb); assay type: cell-based, Mpox virus (MPXV)

| Compound | Duplicate of Duplicate of Hits: No CPE |
| --- | --- |
| O=C(c1ccc(F)c(F)c1Nc1ccc(I)cc1F)N1CC(O)([C@@H]2CCCCN2)C1 (racemic) [MC-Cobimetinib (racemate), Cobimetinib (racemate)] | 1 |
| C#Cc1cccc(Nc2ncnc3cc(OCCOC)c(OCCOC)cc23)c1 [Erlotinib] | 1 |
| COc1cc(Nc2c(C#N)cnc3cc(OCCCN4CCN(C)CC4)c(OC)cc23)c(Cl)cc1Cl [LOPAC-Bosutinib, Bosutinib] | 1 |
| COc1cc2ncnc(Nc3cccc(Br)c3)c2cc1OC.Cl [LOPAC-PD153035 hydrochloride, PD153035 hydrochloride] | 1 |
| O=C(NOC[C@H](O)CO)c1ccc(F)c(F)c1Nc1ccc(I)cc1F [LOPAC-PD 0325901, Mirdametinib] | 1 |
| COc1cc2ncnc(Nc3cccc(Cl)c3)c2cc1OC [LOPAC-Tyrphostin AG 1478, Tyrphostin AG 1478] | 1 |
| COc1cc2ncnc(Nc3cccc(I)c3)c2cc1OC [MC-AG1557, AG1557] | 1 |
| C=CC(=O)Nc1cc2c(Nc3ccc(F)c(Cl)c3)ncnc2cc1C#CC(C)(C)N1CCN(C)CC1 [MC-AV-412 (free base), AV-412 (free base)] | 1 |
| C=CC(=O)Nc1cc(Nc2nccc(-c3cn(C)c4ccccc34)n2)c(OC)cc1N(C)CCNC.CS(=O)(=O)O.CS(=O)(=O)O.CS(=O)(=O)O [MC-AZ7550 Mesylate, AZ7550 Mesylate] | 1 |
| CCS(=O)(=O)c1cc(Nc2ncc(F)c(N(Cc3ccccc3C#N)c3cc(CO)ccc3C)n2)ccc1N1CCN(C)CC1 [MC-AZ13705339, AZ13705339] | 1 |
| C=CC(=O)Nc1cc(Nc2nccc(-c3c[nH]c4ccccc34)n2)c(OC)cc1N(C)CCN(C)C [MC-AZ-5104, AZ-5104] | 1 |
| CN(C)C/C=C/C(=O)Nc1cc2c(Nc3ccc(F)c(Cl)c3)ncnc2cc1O[C@H]1CCOC1.O=C(O)/C=C\C(=O)O.O=C(O)/C=C\C(=O)O [MC-Afatinib (dimaleate), Afatinib (dimaleate)] | 1 |
| C=CC(=O)Nc1cc(Nc2nccc(-c3cn(C4CC4)c4ccccc34)n2)c(OC)cc1N(C)CCN(C)C.CS(=O)(=O)O [MC-Almonertinib (mesylate), Almonertinib (mesylate)] | 1 |
| C=CC(=O)Nc1cc(Nc2nccc(-c3cn(C4CC4)c4ccccc34)n2)c(OC)cc1N(C)CCN(C)C [MC-Almonertinib, Almonertinib] | 1 |
| Cc1cccc(/C=N/Nc2cc(N3CCOCC3)nc(OCCc3ccccn3)n2)c1 [MC-Apilimod, Apilimod] | 1 |
| C=CC(=O)Nc1cccc(Oc2nc(Nc3ccc(N4CCN(C)CC4)c(F)c3)nc3[nH]ccc23)c1.O=C(O)/C=C\C(=O)O [MC-Avitinib (maleate), Avitinib (maleate)] | 1 |
| C=CC(=O)Nc1cccc(Oc2nc(Nc3ccc(N4CCN(C)CC4)c(F)c3)nc3[nH]ccc23)c1 [MC-Avitinib, Avitinib] | 1 |
| CNS(=O)(=O)Nc1nccc(Cc2c(C)c3ccc(Oc4ncccn4)cc3oc2=O)c1F [MC-Avutometinib, Avutometinib] | 1 |
| COc1c(F)cccc1Nc1c(-c2ccncc2OCC(C)(C)OC)[nH]c2c1C(=O)NCC2 [MC-BAY 2476568, BAY 2476568] | 1 |
| COc1cccc(Nc2ncnn3ccc(CN4CC[C@@H](N)[C@H](O)C4)c23)c1 [MC-BMS-690514, BMS-690514] | 1 |
| C=CC(=O)Nc1cc(Nc2nccc(-c3cn(CC(F)(F)F)c4ccccc34)n2)c(OC)cc1N(C)CCN(C)C [MC-Befotertinib, Befotertinib] | 1 |
| C=CC(=O)N1CCC[C@@H](n2nc(-c3ccc(Oc4ccccc4)cc3)c(C(N)=O)c2N)C1 [MC-Btk inhibitor 2, Btk inhibitor 2] | 1 |
| C=CC(=O)Nc1cc(C)ccc1Nc1nc(Nc2cc(OC)ncc2C)ncc1C(F)(F)F [MC-CC-90003, CC-90003] | 1 |
| CC#CC(=O)Nc1ccc2ncnc(Nc3cccc(Br)c3)c2c1 [MC-CL-387785, CL-387785] | 1 |
| C=CC(=O)Nc1cc2c(Nc3ccc(F)c(Cl)c3)ncnc2cc1OCCCN1CCOCC1 [MC-Canertinib, Canertinib] | 1 |
| CN(C)C/C=C/C(=O)Nc1cccc(-c2c(-c3ccccc3)oc3ncnc(N[C@H](CO)c4ccccc4)c23)c1 [MC-DBPR112, DBPR112] | 1 |
| C#Cc1cccc(Nc2ncnc3cc(OCCOC)c(OCCO)cc23)c1.Cl [MC-Desmethyl Erlotinib, Desmethyl Erlotinib] | 1 |
| C=CC(=O)Nc1cccc(-n2c(=O)cc(C)c3cnc(Nc4ccc(OCCN(C)C)cc4OC)nc32)c1.O=C(O)C(F)(F)F [MC-EGFR-IN-1 (TFA), EGFR-IN-1 (TFA)] | 1 |

| Compound | Duplicate of Duplicate of Hits: No CPE |
| --- | --- |
| C=CC(=O)Nc1cccc(-c2c(-c3ccccc3)oc3ncnc(N[C@H](CO)c4ccccc4)c23)c1 [MC-EGFR-IN-9, EGFR-IN-9] | 1 |
| CN1CCN(c2ccc(Nc3ncc4nc(Nc5ccccc5)n([C@@H]5CCN(S(=O)(=O)C6CC6)C5)c4n3)cc2)CC1 [MC-EGFR-IN-11, EGFR-IN-11] | 1 |
| COCc1c(-c2ccc(NC(=O)Nc3cc(C(F)(F)F)ccc3F)c(F)c2)c2c(N)ncnn2c1CN1CCOCC1 [MC-EOC317, EOC317] | 1 |
| Cc1cccc([C@@H](CO)NC(=O)[C@@H](C)N2Cc3ccc(-c4nc(NC5CCOCC5)ncc4Cl)cc3C2=O)c1 [MC-ERK1/2 inhibitor 1, ERK1/2 inhibitor 1] | 1 |
| C#Cc1cccc(Nc2ncnc3cc(OCCOC)c(OCCOC)cc23)c1.Cl [MC-Erlotinib (Hydrochloride), Erlotinib (Hydrochloride)] | 1 |
| C=CCn1cc(-c2ccc(NC(=O)Nc3cc(C(C)(C)C)on3)cc2)c2c(N)ncnc21 [MC-FLT3-IN-4, FLT3-IN-4] | 1 |
| Cc1c(CN2CCN(S(C)(=O)=O)CC2)sc2c(N3CCOCC3)nc(-c3cnc(N)nc3)nc12 [MC-GNE-477, GNE-477] | 1 |
| CNC(=O)c1ccccc1Nc1cc(Nc2ccc(N3CCN(CC(=O)N[C@H](C(=O)N4C[C@H](O)C[C@H]4C(=O)N[C@@H](C)c4ccc(-c5scnc5C)cc4)C(C)(C)C)CC3)cc2OC)ncc1C(F)(F)F [MC-GSK215, GSK215] | 1 |
| Cc1c(=O)n(C)c(Nc2ccc(I)cc2F)c2c(=O)n(C3CC3)c(=O)n(-c3cccc(N)c3)c12 [MC-GSK1790627, GSK1790627] | 1 |
| CCN1CCN(Cc2ccc(NC(=O)c3ccc(C)c(/C=C/c4cnc5[nH]ccc5c4OC)c3)cc2C(F)(F)F)CC1 [MC-HG6-64-1, HG6-64-1] | 1 |
| CCOc1cc2ncc(C#N)c(Nc3ccc(OCc4cccc(F)c4)c(Cl)c3)c2cc1NC(=O)/C=C/CN(C)C [MC-HKI-357, HKI-357] | 1 |
| O=C1Nc2cc3[nH]nc(-c4ccncc4)c3cc2CN1Cc1ccccc1 [MC-KO-947, KO-947] | 1 |
| CNc1ncc2cc(-c3cc(NC(=O)NCCC(C)(C)C)c(F)cc3C)c(C)nc2n1 [MC-LY3009120, LY3009120] | 1 |
| COc1cc2ncnc(Nc3ccc(F)c(Cl)c3)c2cc1OCCCN1C[C@@H]2OCCO[C@@H]2C1.CS(=O)(=O)O.CS(=O)(=O)O.O [MC-Larotinib (mesylate hydrate), Larotinib (mesylate hydrate)] | 1 |
| C=CC(=O)Nc1cc(Nc2nccc(-n3cc(CN(C)C)c(-c4ccccc4)n3)n2)c(OC)cc1N1CCOCC1 [MC-Lazertinib, Lazertinib] | 1 |
| CS[C@@]1(C(=O)Nc2ccc3[nH]nc(-c4ccc(OC(C)C)nc4)c3c2)CCN(CC(=O)N2CC=C(c3ccc(-c4ncn(C)n4)cc3)CC2)C1 [MC-MK-8353, MK-8353] | 1 |
| C=CC(=O)N[C@@H]1CN(c2nc(Nc3cn(C)nc3OC)c3ncn(C)c3n2)C[C@H]1F [MC-Mavelertinib, Mavelertinib] | 1 |
| CN(C)C/C=C/C(=O)Nc1cc2c(Nc3ccc(F)c(Cl)c3)ncnc2cc1OC(F)F [MC-Mefatinib (free base), Mefatinib (free base)] | 1 |
| N[C@@H]1c2ccccc2OC12CCN(c1cnc3c(N4CCCc5ncccc54)n[nH]c3n1)CC2 [MC-Migoprotafib, Migoprotafib] | 1 |
| C=CC(=O)Nc1cc(Nc2ncc(C(=O)OC(C)C)c(-c3cn(C)c4ccccc34)n2)c(OC)cc1N(C)CCN(C)C.O=C(O)CCC(=O)O [MC-Mobocertinib (succinate), Mobocertinib (succinate)] | 1 |
| C=CC(=O)Nc1cc(Nc2ncc(C(=O)OC(C)C)c(-c3cn(C)c4ccccc34)n2)c(OC)cc1N(C)CCN(C)C [MC-Mobocertinib, Mobocertinib] | 1 |
| C#Cc1cccc(Nc2ncnc3cc(OC)c(OCCCN4CCOCC4)cc23)c1 [MC-NRC-2694, NRC-2694] | 1 |
| COc1ncc(-c2ccc3nccc(C#CCN4CCN(S(C)(=O)=O)CC4)c3c2)cc1NS(=O)(=O)c1ccc(F)cc1F [MC-NSC781406, NSC781406] | 1 |
| Cc1cc(C(=O)Nc2nc3cccc(Cl)c3n2[C@@H]2CCCCN(C(=O)/C=C/CN(C)C)C2)ccn1 [MC-Nazartinib, Nazartinib] | 1 |
| CCOc1cc2ncc(C#N)c(Nc3ccc(OCc4ccccn4)c(Cl)c3)c2cc1NC(=O)/C=C/CN(C)C.O=C(O)/C=C\C(=O)O [MC-Neratinib (maleate), Neratinib (maleate)] | 1 |
| CCOc1cc2ncc(C#N)c(Nc3ccc(OCc4ccccn4)c(Cl)c3)c2cc1NC(=O)/C=C/CN(C)C [MC-Neratinib, Neratinib] | 1 |
| C=CC(=O)N1CCC[C@H](n2c(=O)n(-c3ccc(Oc4ccccc4)cc3)c3c(N)ncnc32)C1 [MC-ONO-4059 (analog), ONO-4059 (analog)] | 1 |
